Experimental data: publication PMC9090415, “Discovery of small molecule inhibitors of Plasmodium falciparum apicoplast DNA polymerase” (Journal of Enzyme Inhibition and Medicinal Chemistry, 2022)

Target: P. falciparum apicoplast DNA polymerase (Pf-apPOL) (Plasmodium falciparum, UniProt Q8ILY1)
Assay: Fluorescence-based high-throughput DNA polymerase assay (molecular beacon), primary screen and dose-response;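 on % inhibition ApPOL 90': test concentration in µM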;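 on % inhibition apPOL 180': test concentration in µM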
Assay type: biochemical
How it was run: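 Single-point screening used 10 µM compound with 20 nM polymerase, 20 nM hairpin substrate and 6 µM dNTPs for 90 min at 25 °C. Confirmatory titrations (2.5–80 µM) followed fluorescence at three times, and IC50 was derived from a fit including a cooperativity term n.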

[1] = supplemental file 2, sheet IC50 nontoxic compounds; Pf-apPOL

Sequence of P. falciparum apicoplast DNA polymerase (Pf-apPOL) (Q8ILY1 entry or part of it): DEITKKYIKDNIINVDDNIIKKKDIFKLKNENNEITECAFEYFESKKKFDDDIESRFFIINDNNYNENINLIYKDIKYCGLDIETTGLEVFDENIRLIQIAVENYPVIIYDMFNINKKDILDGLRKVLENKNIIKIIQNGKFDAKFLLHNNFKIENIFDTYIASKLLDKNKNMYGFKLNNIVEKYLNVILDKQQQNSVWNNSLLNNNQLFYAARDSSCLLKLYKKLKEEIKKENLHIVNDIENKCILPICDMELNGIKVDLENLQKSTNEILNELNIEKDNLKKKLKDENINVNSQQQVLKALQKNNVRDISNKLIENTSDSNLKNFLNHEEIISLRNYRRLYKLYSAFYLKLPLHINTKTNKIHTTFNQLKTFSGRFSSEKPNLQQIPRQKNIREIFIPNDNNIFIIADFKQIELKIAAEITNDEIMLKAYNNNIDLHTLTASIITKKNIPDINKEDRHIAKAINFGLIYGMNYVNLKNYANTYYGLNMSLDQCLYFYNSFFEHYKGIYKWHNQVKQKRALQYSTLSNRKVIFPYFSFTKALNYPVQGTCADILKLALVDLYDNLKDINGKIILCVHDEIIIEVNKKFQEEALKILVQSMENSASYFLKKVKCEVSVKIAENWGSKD

CCCCCc1c2c(cc(O)c1C(=O)O)OC(=O)c1c(cc(OC)cc1C(=O)CCCC)O2 [Molecule 24, CCCCCc1c2Oc3cc(OC)cc(c3C(=O)Oc2cc(c1C(=O)O)O)C(=O)CCCC] was tested, and the “% inhibition Apo pol 10'” value (DRC-1; concentration 2.5; 10') was 18.1675%, the “% inhibition Apol 90'” value (DRC-1; concentration 2.5; 90') was 17.5572% and the “% inhibition apPOL 180'” value (DRC-1; concentration 2.5; 180') was 13.8829%. For the same molecule, the “% inhibition Apo pol 10'” value (DRC-1; concentration 5; 10') was 31.5197%, the “% inhibition Apol 90'” value (DRC-1; concentration 5; 90') was 20.3733% and the “% inhibition apPOL 180'” value (DRC-1; concentration 5; 180') was 11.4977%. The “% inhibition Apo pol 10'” value (DRC-1; concentration 10; 10') was 51.0452%, the “% inhibition Apol 90'” value (DRC-1; concentration 10; 90') was 38.7515% and the “% inhibition apPOL 180'” value (DRC-1; concentration 10; 180') was 28.4609%. The “% inhibition Apo pol 10'” value (DRC-1; concentration 20; 10') was 86.3655%, the “% inhibition Apol 90'” value (DRC-1; concentration 20; 90') was 81.3702% and the “% inhibition apPOL 180'” value (DRC-1; concentration 20; 180') was 74.6955%. The “% inhibition Apo pol 10'” value (DRC-1; concentration 40; 10') was 94.8127%, the “% inhibition Apol 90'” value (DRC-1; concentration 40; 90') was 91.3399% and the “% inhibition apPOL 180'” value (DRC-1; concentration 40; 180') was 88.9652%. For the same molecule, the “% inhibition Apo pol 10'” value (DRC-1; concentration 80 (unit not given); 10') was 96.1248%, the “% inhibition Apol 90'” value (DRC-1; concentration 80; 90') was 93.64% and the “% inhibition apPOL 180'” value (DRC-1; concentration 80; 180') was 92.215%. The “% inhibition Apo pol 5'” value (DRC-2; 5'; concentration 2.5) was 11%, the “% inhibition Apol 40'” value (DRC-2; 40'; concentration 10) was 51% and the “% inhibition Apol 40'” value (DRC-2; 40'; concentration 20) was 43%. The “% inhibition ApPOL 90'” value (DRC-2; 90'; concentration 2.5) was 11%, the “% inhibition ApPOL 90'” value (DRC-2; 90'; concentration 10) was 51% and the “% inhibition apPOL 180'” value (DRC-2; 180'; concentration 5) was 11%. For the same molecule, the “% inhibition apPOL 180'” value (DRC-2; 180'; concentration 10) was 43%, the “% inhibition Apo pol 5'” value (DRC-2; concentration 2.5; 5') was 11% and the “% inhibition Apol 40'” value (DRC-2; concentration 2.5; 40') was 14%. The “% inhibition ApPOL 90'” value (DRC-2; concentration 2.5; 90') was 11%, the “% inhibition apPOL 180'” value (DRC-2; concentration 2.5; 180') was 6% and the “% inhibition Apo pol 5'” value (DRC-2; concentration 5; 5') was 18%. The “% inhibition Apol 40'” value (DRC-2; concentration 5; 40') was 20%, the “% inhibition ApPOL 90'” value (DRC-2; concentration 5; 90') was 19% and the “% inhibition apPOL 180'” value (DRC-2; concentration 5; 180') was 11%. The “% inhibition Apo pol 5'” value (DRC-2; concentration 10; 5') was 42%, the “% inhibition Apol 40'” value (DRC-2; concentration 10; 40') was 51% and the “% inhibition ApPOL 90'” value (DRC-2; concentration 10; 90') was 51%. For the same molecule, the “% inhibition apPOL 180'” value (DRC-2; concentration 10; 180') was 43%, the “% inhibition Apo pol 5'” value (DRC-2; concentration 20; 5') was 35% and the “% inhibition Apol 40'” value (DRC-2; concentration 20; 40') was 43%. For the same molecule, the “% inhibition ApPOL 90'” value (DRC-2; concentration 20; 90') was 41%, the “% inhibition apPOL 180'” value (DRC-2; concentration 20; 180') was 32% and the “% inhibition Apo pol 5'” value (DRC-2; concentration 40; 5') was 49%. For the same molecule, the “% inhibition Apol 40'” value (DRC-2; concentration 40; 40') was 65%, the “% inhibition ApPOL 90'” value (DRC-2; concentration 40; 90') was 66% and the “% inhibition apPOL 180'” value (DRC-2; concentration 40; 180') was 62%. For the same molecule, the “% inhibition Apo pol 5'” value (DRC-2; concentration 80; 5') was 56%, the “% inhibition Apol 40'” value (DRC-2; concentration 80; 40') was 76% and the “% inhibition ApPOL 90'” value (DRC-2; concentration 80; 90') was 80%. For the same molecule, the “% inhibition apPOL 180'” value (DRC-2; concentration 80; 180') was 81%, the “DNA Pol” value (primary screen value of the 186 hits; unit not given; 90 min, 10 µM) was 33 and the “DNA Pol” value (primary screen value; head prints only 'DNA Pol'; 90 min, 10 µM) was 33.
With CCCCCc1c2c(cc(O)c1C(=O)O)OC(=O)c1c(cc(OC)cc1C(=O)CCCC)O2 [Molecule 24] the IC50 [1] was 9.31 µM.
O=C(NNC(=O)c1ccc(Cl)cc1)C(=O)NNC(=O)c1ccc(Cl)cc1 [Molecule 25] showed an IC50 [1] of 9.83 µM.
